From patent publication US20250163057A1, “DCN-1 MODULATING COMPOUNDS AND METHODS OF USE THEREOF” (Cellarity, Inc., priority 2023, published 2025)
Read-outs that look alike come from different tables or passages of the source.

Columns and labels:
[1] = tested on: fetal hemoglobin gene HBG1; assay: HBG1 Nanostring Assay in CD34+ HSPC erythroid differentiation culture; format: cell-based, human; conditions: for EC50: Homo sapiens, 240 h, HBG1 induction, Day10 of erythroid differentiation; for Nanostring Ymax obs (%): relative to a control compound (C1)
Method: A Nanostring Assay was performed to evaluate the ability of the compounds to induce expression of the fetal hemoglobin gene HBG1 in cells. The data are shown as EC50, with stronger inducers having a lower EC50 value and higher YMax.
Forty eight hours later (day −2), the cells were passaged at a density of 200,000 cells/ml (100 ul/well in 96well culture plate) in complete expantion media. The cells were plated at 200,000 cells/ml on day 0 and day 3, 400,000 cells/ml on day 5 in phase 1 erythroid differentiation containing StemSpan with 2.5 U/mL of EPO (R&D systems, 287-TC-500), 0.5 mg/mL of Holo-Transferrin (Sigma, T0665-500MG), 1× Glutamine (Gluta-Max) (Gibco, 35050-061), 5 μL/mL Lipid Mixture (Sigma, L0288-100ML), 50 ng/mL SCF (R&D Systems, 255-SV-050), 10 ng/mL IL-3 (R&D Systems, 203-IL010) and 10 ng/mL Insulin (Sigma, I9278-5ML) all 200 μl per well in 96 well culture plate. Cells were then passaged at 500,000 cells/ml and 200 μl per well on day 7 in phase 2 Erythroid differentiation (Phase 1 erythroid differentiation removing IL-3) until collection day (Day10). The culture conditions were used for both control DMSO as well as experimental treatments.
For all cell pasagings, cells were centrifuged at 300 g for 8 minutes at room temperature and cell number were normalized by MANTIS and Integra VIAFLO 384. All the compounds are diluted in DMSO and added to complete media by Formulatrix FAST and mixed starting from day −2. Cells were counted by Luna cell counter with AOPI Staining Solution (Nexcelom Bioscience, CS2-0106-25 mL) on day-2. Cells were counted by BD FACSCelesta Flow Cytometer with CountBright™ Plus Absolute Counting Beads (Thermal Fisher Scientific, C36995) and SYTOX AADvanced™ Ready Flow™ Reagent (Invitrogen, R37173) for other passages. Cells were cultured at 37° C. and 5% CO2. DMSO concentration was kept at 0.1% to minimize any effects to the cells by the vehicle. […] Compound plates were kept at room temperature to protect from light to avoid multiple freeze and thaw cycle.
On the collection day (Day10), 100K cells were collected and stored at −80° C. For direct hybridization for Nanostring, 100K cell pellet was lyzed in 25 μL of RLT (QIAGEN, 79216) with 1×β-Mercaptoethanol (Gibco, 21985-023) and shaked at 300-500 RPM for 5 minutes at room temperature. Cell lysate was stored in −80° C. after lysis.
All hybridizations were done in a total volume of 15 μL (3 μL of RNA lysate added to master mix of 12 μL probe A/B, capture probe/reporter probes, proteinase K and attenuation oligos suspended in hybridization buffer). Samples were hybridized at 67° C. for 22 hr. Following hybridization, the tripartide complexes were purified, immobilized by nCounter Prep Station and imaged by Digital Analyzer (nCounter MAX/FLEX Analysis System), to generate digital counts of barcodes corresponding to each target in the multiplexed reaction. Labeled barcodes obtained from unamplified extracts were counted at 555 images or field of view (FOV). The barcode counts for each sample were recorded in Reporter Code Count (RCC) files that are imported into nSolver analysis software (provided with CodeSet by NS) for quality control evaluation.
The quality control (QC) metric included limit of detection QC by checking for wells with less than 100 total counts for positive controls.
Hybridization signals were normalized against the ERCC positive controls and CodeSet Content (housekeeping gene). Briefly, this involved first calculating a sample-specific scaling factor by calculating arithmetic mean of geomeans of all ERCC positive controls with counts more than zero in all samples. Then this arithmetic mean was divided by the geometric mean of each lane to generate a lane-specific normalization factor. All negative controls and target-specific signal values were then normalized by multiplying counts values with their sample-specific scaling factor. The acceptable range for scaling factors is 0.3-3.0. […]

[2] = tested on: Cullin-3 (CUL3) neddylation; assay: AlphaLISA assay for Cullin-3 (CUL3) neddylation in TF 1 cells; format: cell-based; conditions: Homo sapiens, TF-1, 3 h, 3 hours treatment
Outline: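 Neddylated CUL3 was quantified by AlphaLISA in lysates of TF 1 cells exposed for 3 h to test compound in IMDM without supplements. Percent inhibition set between vehicle and 1 μM DI-1548 positive control; IC50 derived by Hill-equation fitting of dose-response curves.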

DCN1 protein = DCN1 protein (Homo sapiens (Human), UniProt Q96GG9); assay: Intact Protein MS Analysis with the RapidFire-TOF System (covalent adduct formation); format: binding; conditions: MS Emax; 400 nM DCN1, 3 hours at room temperature
Chain of DCN1 protein (Q96GG9 whole entry): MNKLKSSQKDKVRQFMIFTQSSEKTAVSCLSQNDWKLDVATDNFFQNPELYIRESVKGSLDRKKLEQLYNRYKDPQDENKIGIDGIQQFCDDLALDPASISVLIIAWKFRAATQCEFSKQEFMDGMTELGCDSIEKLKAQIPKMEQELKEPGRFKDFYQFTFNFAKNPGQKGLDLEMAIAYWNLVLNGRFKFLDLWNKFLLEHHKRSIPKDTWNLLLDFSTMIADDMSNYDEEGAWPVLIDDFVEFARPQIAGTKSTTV
Outline: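 Tag-cleaved human DCN1 (400 nM) expressed in E. coli, in 25 mM Tris-HCl, 200 mM NaCl, 1 mM DTT, was incubated with 11 compound concentrations for 3 h at room temperature and quenched with 0.2% formic acid. Intact-protein Q-TOF MS with deconvolution detected the compound adduct mass.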

[3] = target: DCN1 (DCUND1) protein PONY domain (Homo sapiens (Human), UniProt Q96GG9); assay: TR-FRET assay, DCN1 binding with FAM-labeled probe
Chain of DCN1 (DCUND1) protein PONY domain (Q96GG9 60-248): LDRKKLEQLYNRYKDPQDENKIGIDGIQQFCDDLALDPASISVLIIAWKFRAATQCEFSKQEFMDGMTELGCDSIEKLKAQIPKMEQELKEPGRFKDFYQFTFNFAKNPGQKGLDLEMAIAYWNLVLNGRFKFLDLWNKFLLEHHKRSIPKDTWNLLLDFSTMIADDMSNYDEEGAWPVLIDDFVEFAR
Outline: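 Tb-DCN1 PONY domain (E. coli, biotin/streptavidin-Tb); FAM-labelled non-covalent inhibitor probe; TritonX buffer, 200 mM NaCl; 5 nM DCN1 + 20 nM probe or 0.31 nM DCN1 + 900 nM total probe; 0.1% DMSO; TR-FRET read 1, 5, 24 hrs.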

[4] = 24 hr after treatment with compound, read-out: TR FRET IC50 24 hr
[5] = TR FRET IC50 1 hr (nM), 1 hr after treatment with compound

SMILES | EC50 [1] | Nanostring Ymax obs (%) [1] | IC50 [2] | % Adduct Formation (DCN1 protein) | IC50 [3, 4] | IC50 [3, 5] | IC50 ([3]; read-out: TR FRET IC50 1 hr, 1 hr after treatment with compound)
CCN1C(=O)[C@@H](NC(=O)c2cccc(C(F)(F)F)c2)[C@@H](c2ccc(F)cc2)c2c(CNC(=O)[C@H](C)Cl)nn(-c3ccccc3)c21 (racemic) [Compound I-179] | > 1000 nM | + (Nanostring Ymax greater than or equal to 0.0 and less than or equal to 50.0) | 100 to 1000 nM | + (MS Emax % adduct formation greater than or equal to 0.0 and less than or equal to 30.0) |  |  | 
CCN1C(=O)[C@@H](NC(=O)c2cccc(C(F)(F)F)c2)[C@@H](c2ccc(F)cc2)c2c(CCN(C)C#N)nn(-c3ccccc3)c21 (racemic) [Compound I-151, rac-N-((4R,5R)-7-ethyl-4-(4-fluorophenyl)-3-(2-(N-methylcyanamido)ethyl)-6-oxo-1-phenyl-4,5,6,7-tetrahydro-1H-pyrazolo[3,4-b]pyridin-5-yl)-3-(trifluoromethyl)benzamide] | > 1000 nM | ++ (Nanostring Ymax greater than 50.0 and less than or equal to 100.0) |  | +++ (MS Emax % adduct formation greater than 80.0 and less than or equal to 100.0) | ≤ 200 nM | 200 to 1000 nM | 
C=C(CN1CCC(F)(F)C1)C(=O)NCc1nn(-c2ccccc2)c2c1[C@H](c1ccc(F)cc1)[C@H](NC(=O)c1cccc(C(F)(F)F)c1)C(=O)N2CC (racemic) [Compound I-72] | 100 to 1000 nM | ++ (Nanostring Ymax greater than 50.0 and less than or equal to 100.0) |  | + (MS Emax % adduct formation greater than or equal to 0.0 and less than or equal to 30.0) | 200 to 1000 nM | 200 to 1000 nM | 
CCN1C(=O)[C@@H](NC(=O)c2cccc(C(F)(F)F)c2)[C@@H](c2ccc(F)cc2)c2c(NC(=O)C3(C#N)CCOCC3)nn(-c3ccccc3)c21 (racemic) [Compound I-66] | > 1000 nM | + (Nanostring Ymax greater than or equal to 0.0 and less than or equal to 50.0) |  | + (MS Emax % adduct formation greater than or equal to 0.0 and less than or equal to 30.0) | 200 to 1000 nM |  | 
CCN1C(=O)[C@@H](NC(=O)c2cccc(C(F)(F)F)c2)[C@@H](c2ccc(F)cc2)c2c(C/C=C/C(=O)NC)nn(-c3ccccc3)c21 (racemic) [Compound I-38] | > 1000 nM | + (Nanostring Ymax greater than or equal to 0.0 and less than or equal to 50.0) |  | + (MS Emax % adduct formation greater than or equal to 0.0 and less than or equal to 30.0) | 1000 to 3000 nM | 1000 to 3000 nM | 
CCN1C(=O)[C@@H](NC(=O)c2cccc(C(F)(F)F)c2)[C@@H](c2ccc(F)cc2)c2c(CCNC#N)nn(-c3ccccc3)c21 (racemic) [Compound I-10, rac-N-((4R,5R)-3-(2-cyanamidoethyl)-7-ethyl-4-(4-fluorophenyl)-6-oxo-1-phenyl-4,5,6,7-tetrahydro-1H-pyrazolo[3,4-b]pyridin-5-yl)-3-(trifluoromethyl)benzamide] | 100 to 1000 nM | ++ (Nanostring Ymax greater than 50.0 and less than or equal to 100.0) |  | ++ (MS Emax % adduct formation greater than 30.0 and less than or equal to 80.0) | ≤ 200 nM | 200 to 1000 nM | 
CCN1C(=O)[C@@H](NC(=O)c2cccc(C(F)(F)F)c2)[C@@H](c2ccc(F)cc2)c2c(C3(NC#N)CC3)nn(-c3ccccc3)c21 (racemic) [Compound I-87] | 100 to 1000 nM | ++ (Nanostring Ymax greater than 50.0 and less than or equal to 100.0) |  | +++ (MS Emax % adduct formation greater than 80.0 and less than or equal to 100.0) | ≤ 200 nM | 200 to 1000 nM | 
CCN1C(=O)[C@@H](NC(=O)c2cccc(C(F)(F)F)c2)[C@@H](c2ccc(F)cc2)c2c(C(=O)N3CC[C@@H](C#N)C3)nn(-c3ccccc3)c21 (mixture of isomers) [Compound I-60] | > 1000 nM | ++ (Nanostring Ymax greater than 50.0 and less than or equal to 100.0) |  | + (MS Emax % adduct formation greater than or equal to 0.0 and less than or equal to 30.0) | 200 to 1000 nM |  | ≤ 200 nM
C=C(CO)C(=O)NCc1nn(-c2ccccc2)c2c1[C@H](c1ccc(F)cc1)[C@H](NC(=O)c1cccc(C(F)(F)F)c1)C(=O)N2CC (racemic) [Compound I-116, rac-N-((4R,5R)-7-ethyl-4-(4-fluorophenyl)-3-((2-(hydroxymethyl)acrylamido)methyl)-6-oxo-1-phenyl-4,5,6,7-tetrahydro-1H-pyrazolo[3,4-b]pyridin-5-yl)-3-(trifluoromethyl)benzamide] | > 1000 nM | + (Nanostring Ymax greater than or equal to 0.0 and less than or equal to 50.0) |  | + (MS Emax % adduct formation greater than or equal to 0.0 and less than or equal to 30.0) | 200 to 1000 nM | 200 to 1000 nM | 
CCN1C(=O)[C@@H](NC(=O)c2cccc(C(F)(F)F)c2)[C@@H](c2ccc(F)cc2)c2c(CNC(=O)C3=C(C(=O)OC)CC3)nn(-c3ccccc3)c21 [Compound I-119] | 100 to 1000 nM | ++ (Nanostring Ymax greater than 50.0 and less than or equal to 100.0) |  | + (MS Emax % adduct formation greater than or equal to 0.0 and less than or equal to 30.0) | 200 to 1000 nM | 200 to 1000 nM | 
CCN1C(=O)[C@@H](NC(=O)c2cccc(C(F)(F)F)c2)[C@H](c2ccc(F)cc2)c2c(CN(C)C(=O)/C=C/C(=O)OC)nn(-c3ccccc3)c21 (racemic) [Compound I-141, methyl (˜{E})-4-[[(4˜{S},5˜{S})-7-ethyl-4-(4-fluorophenyl)-6-oxo-1-phenyl-5-[[3-(trifluoromethyl)benzoyl]amino]-4,5-dihydropyrazolo[3,4-b]pyridine-3-yl]methyl-methyl-amino]-4-oxo-but-2-enoate] | > 1000 nM | ++ (Nanostring Ymax greater than 50.0 and less than or equal to 100.0) |  | + (MS Emax % adduct formation greater than or equal to 0.0 and less than or equal to 30.0) |  | 200 to 1000 nM | 
